Data reported in patent US11293870B2, “Vital stain” (Mie University, priority 2013, dated 2022).
“Also recorded” adds a separate entry of the source. Where a name gives a salt, the structure may show the parent alone. Read-outs that look alike come from different tables or passages of the source.

How the values were obtained:
[1] = test system: MDCK-GFP-Ras^V12 cells mixed with MDCK normal cells; assay: In vitro assay of MDCK-Ras^V12 cancerized cell small aggregates as a very early cancer model; format: cell-based, canine; conditions: excitation 750, 800, 850, 900 nm, red fluorescence
Description: The MDCK normal cells were cultured in a 10 cm dish, and the MDCK-GFP-Ras^V12 cells were cultured in a 6 cm dish. The culture solution used for the MDCK normal cells was DMEM (containing Phenol Red)+10% FBS+penicillin/streptomycin.
The solution used for the MDCK-GFP-Ras^V12 cells was DMEM (containing Phenol Red)+10% FBS+penicillin/streptomycin+Zeocin (400 μg/ml)+blasticidin (5 μg/ml). […] The seeding was carried out using a DMEM+10% FBS+penicillin/streptomycin culture solution, to 1.0 to 3.0×10^4 cells per well of the 96-well dish. Tetracycline at a concentration of 2 μg/ml was added to the culture solution after 4 days when seeding was to 1.0×10^4 or after 1 day when seeding was to 3.0×10^4, and GFP-Ras^V12 was expressed, forming cancerized cell small aggregates among the MDCK normal cells (NPL 3). After 18 to 36 hours, the cells in each of the wells were rinsed 3 times with 200 μl of PBS, and then the Prestwick Chemical Library compounds and the Ministry of Health, Labour and Welfare-approved food additives, each diluted to 1 μM with a 100 μl volume of PBS, were added to the respective wells and taken up by the cells for 5 minutes at room temperature. They were then rinsed 3 times with 200 μl of PBS, and in certain cases further rinsed once with 100 μl of DMEM without Phenol Red, and observed under a multiphoton laser microscope.

[2] = cited from earlier work
[3] = test system: epithelial cells/adenocytes and connective tissue/capillaries; assay: Preferential staining of epithelial cells/adenocytes or connective tissue/capillaries; format: in vivo, mouse; conditions: 5 mg/ml for curcumin, 1 mg/ml for all other dyes
Description: Drinking water containing 2% (w/v) dextran sodium sulfate (DSS) was given to 8-week-old C57B6 mice (male, approximately 20 g) for 7 days. After intraperitoneal injection of 0.2 ml of 5% chloral hydrate for anesthesia, the mouse abdominal wall was incised vertically to about 1 cm, and the gastrointestinal tract was raised over the abdominal wall to about 1 cm. Blood flow to the gastrointestinal tract was maintained during this time by the blood vessel flowing into the mesenteric attachment site. The gastrointestinal tract was incised vertically to about 1 cm on opposite side of the mesenteric attachment site, including the tunica muscularis and mucosa. The opposite side of the mesenteric attachment site was incised in order to prevent severance and damage of the blood vessel and minimize bleeding. When the incision site of the gastrointestinal tract was opened vertically, the mucosal surface of the gastrointestinal tract, as the food channel, became visible. When food digestion products were present they were wiped off with tissue paper.
A metal ring (outer diameter: 16 millimeters, inner diameter, 6 millimeters) was placed on a laboratory stage, and a rapid bonding adhesive (AronAlpha) was coated over the entire periphery of the ring surface on one side. Forceps were used to hold the rapid bonding adhesive-coated metal ring with the adhesive-coated surface facing downward, and it was set on the pronase-treated mucosal surface. During a period of about 5 minutes, the metal ring became anchored to the mucosa with the rapid bonding adhesive, and the region where the dye compound was to be applied was rinsed with PBS.
In order to avoid drying of the mucosal surface, a curcumin stock solution or sulfuretin stock solution diluted with physiological saline (PBS) (see Tables 1 to 3 for the dilution factors) was added dropwise onto the pronase-treated mucosal surface, and after allowing it to stand for 1 minute, it was rinsed 3 times with PBS, a cover glass was placed over the metal ring, and the objective lens of a multiphoton laser microscope (FV1000 MPE by Olympus Corp.) was brought near to the top of the cover glass for image observation.
The procedure from administration of the dye compound to observation was conducted as described above under “Evaluation of stainability” (same hereunder). Also, the administered concentration of dye to the mucosal surface was 5 mg/ml for curcumin as Dye No. 1, and 1 mg/ml for all of the other dyes.

[4] = cited from earlier work; remark: listed apart in the source
[5] = test system: cancer lesion site versus normal mucosa of large intestine; assay: Comparison of staining patterns in normal site and cancer tumor site of large intestine; format: in vivo, mouse; conditions: Example 1; regardless of pronase treatment of the mucosal surface
Description: Drinking water containing 2% (w/v) dextran sodium sulfate (DSS) was given to 8-week-old C57B6 mice (male, approximately 20 g) for 7 days. After intraperitoneal injection of 0.2 ml of 5% chloral hydrate for anesthesia, the mouse abdominal wall was incised vertically to about 1 cm, and the gastrointestinal tract was raised over the abdominal wall to about 1 cm. Blood flow to the gastrointestinal tract was maintained during this time by the blood vessel flowing into the mesenteric attachment site. The gastrointestinal tract was incised vertically to about 1 cm on the opposite side of the mesenteric attachment site, including the tunica muscularis and mucosa. The opposite side of the mesenteric attachment site was incised in order to prevent severance and damage of the blood vessel and minimize bleeding. When the incision site of the gastrointestinal tract was opened vertically, the mucosal surface of the gastrointestinal tract, as the food channel, became visible. When food digestion products were present they were wiped off with tissue paper. In order to more clearly observe the gastrointestinal tract mucosal surface, a 1% pronase solution was dropped onto the mucosal surface and was allowed to stand still for 15 minutes. This pronase treatment removed the mucus from the mucosal surface, rendering the cell structure more easily visible. Next, the pronase was removed from the mucosal surface and rinsed with physiological saline (PBS). A metal ring (outer diameter: 16 millimeters, inner diameter, 6 millimeters) was placed on a laboratory stage, and a rapid bonding adhesive (AronAlpha) was coated over the entire periphery of the surface on one side. Forceps were used to hold the rapid bonding adhesive-coated metal ring with the adhesive-coated surface facing downward, and it was set on the pronase-treated mucosal surface. During a period of about 5 minutes, the metal ring became anchored to the mucosa with the rapid bonding adhesive, and the region where the dye compound was to be applied was rinsed with PBS. […] FIG. 32 is a drawing for illustration of a stainability evaluation step for the aforementioned dye compounds. […] Z stack image). […] Both of the staining photographs of the normal site and cancer tumor site were taken under the same conditions.

[6] = Prestwick Chemical Library compounds, 1 μM, 5 minutes
[7] = Ministry of Health, Labour and Welfare-approved food additives, 1 mg/ml

Compound | LD50 ([2]; Mouse, Oral) | Cell group preferentially stained (epithelial cells/adenocytes or connective tissue/capillaries) [3] | other results
COc1cc(-c2ccc(N=Nc3ccc4c(S(=O)(=O)[O-])cc(S(=O)(=O)[O-])c(N)c4c3O)c(OC)c2)ccc1N=Nc1ccc2c(S(=O)(=O)[O-])cc(S(=O)(=O)[O-])c(N)c2c1O.[Na+].[Na+].[Na+].[Na+] [Chicago sky blue 6B, reference compound] |  |  | Staining of GFP-Ras^V12 positive cancerized cells versus MDCK normal cells [1, 6]: labeling both cancerized cell small aggregates and normal cells; Staining of GFP-Ras^V12 positive cancerized cells versus MDCK normal cells ([1]; Prestwick Chemical Library compounds, 1 μM, 5 minutes, listed as Chicago Sky Blue 6B): equal staining of normal cells and cancer cells
CC1=C(/C=C/C(C)=C/C=C/C(C)=C/C=C/C=C(C)/C=C/C=C(C)/C=C/C(=O)[C@]2(C)C[C@@H](O)CC2(C)C)C(C)(C)C[C@H](O)C1 [Capsanthin] | 300 mg/kg |  | 
CC1(C)C(/C=C/C=C/C=C/C=C2\N(CCCCS(=O)(=O)O)c3ccc4ccccc4c3C2(C)C)=[N+](CCCCS(=O)(=O)[O-])c2ccc3ccccc3c21 [Indocyanine green, reference compound] |  | preferentially stained epithelial cells/adenocytes | 
O=S(=O)([O-])c1ccc(N=Nc2c(O)ccc3cc(S(=O)(=O)[O-])ccc23)cc1.[Na+].[Na+] [Yellow #5, Sunset Yellow FCF] | >6000 mg/kg |  | 
CCN(CC)c1ccc2c(-c3ccc(S(=O)(=O)[O-])cc3S(=O)(=O)[O-])c3ccc(=[N+](CC)CC)cc-3oc2c1.[Na+] [Red #106, Acid Red] | >20,000 mg/kg | the cell membranes of epithelial cells and adenocytes, and connective tissue/capillaries were strongly stained | Staining of GFP-Ras^V12 positive cancerized cells versus MDCK normal cells [1, 7]: labeled both cancerized cell small aggregates and normal cells; also recorded: staining of both normal cells and cancer cells; LD50 ([2]; Mouse, Oral, listed as Acid Red): >20000 mg/kg
Oc1ccc2cc(O)c(-c3cc(O)c(O)c(O)c3)[o+]c2c1 [Robinetinidin] |  | preferentially stained connective tissue/capillaries | 
O=C(O[C@@H]1Cc2c(O)cc(O)cc2O[C@@H]1c1cc(O)c(O)c(O)c1)c1cc(O)c(O)c(O)c1 [Epigallocatechin gallate] | 2170 mg/kg | preferentially stained epithelial cells/adenocytes | 
COc1cc(-c2[o+]c3cc(O)cc(O)c3cc2O)cc(OC)c1O [Malvidin] |  |  | LD50 ([2]; Mouse, Intra-venous): 18 mg/kg
Oc1cc(O)c2cc(O)c(-c3ccc(O)c(O)c3)[o+]c2c1 [Cyanidin] |  |  | LD50 ([4]; rat, in vivo): 1500 mg/kg
CCN(Cc1cccc(S(=O)(=O)[O-])c1)c1ccc(C(=C2C=CC(=[N+](CC)Cc3cccc(S(=O)(=O)[O-])c3)C=C2)c2ccc(O)cc2S(=O)(=O)[O-])cc1.[Na+].[Na+] [Green #3, Fast Green FCF] |  | some adenocytes and connective tissue/capillaries were strongly stained | Staining of GFP-Ras^V12 positive cancerized cells versus MDCK normal cells [1, 7]: labeled GFP-Ras^V12-positive cancerized cell small aggregates more intensely than normal cells; also recorded: specific staining of cancer cells; LD50 ([4]; Rat, Oral): >2000 mg/kg
O=C([O-])c1ccccc1-c1c2cc(Br)c(=O)cc-2oc2[c]([Hg+])c([O-])c(Br)cc12.[Na+].[Na+].[OH-] [merbromin, reference compound] |  |  | Staining of GFP-Ras^V12 positive cancerized cells versus MDCK normal cells [1, 6]: intensely labeled in GFP-Ras^V12 positive cancerized cell small aggregates compared to normal cells; also recorded: GFP-Ras^V12 positive cells were preferentially stained
O=c1c(O)c(-c2ccc(O)c(O)c2)oc2cc(O)cc(O)c12 [Quercetin] |  | intensely stained connective tissue/capillaries and faintly stained epithelial cells/adenocytes | 
Oc1ccc(-c2ccc3c(O)cc(O)cc3[o+]2)cc1.[Cl-] [Apigeninidin] | 300 mg/kg |  | 
O=c1c(O)c(-c2cc(O)c(O)c(O)c2)oc2cc(O)cc(O)c12 [Myricetin] | 300 mg/kg | preferentially stained epithelial cells/adenocytes | 
O=C([O-])c1c(Cl)c(Cl)c(Cl)c(Cl)c1-c1c2cc(I)c(=O)c(I)c-2oc2c(I)c([O-])c(I)cc12.[Na+].[Na+] [Red #105 (720 nm)] | 6480 mg/kg |  | 
Oc1ccc(-c2[o+]c3cc(O)cc(O)c3cc2O)cc1 [Pelargonidin] | 300 mg/kg |  | 
O=C(O)c1nn(-c2ccc(S(=O)(=O)O)cc2)c(O)c1N=Nc1ccc(S(=O)(=O)O)cc1 [Yellow #4, tartrazine] | 12750 mg/kg |  | 
COc1cc(/C=C/C(=O)CC(=O)/C=C/c2ccc(O)c(OC)c2)ccc1O [Curcumin (pure), Curcumin] |  |  | LD50 ([2]; mouse, in vivo, po): 2000 mg/kg
Oc1cc(O)c2cc(O)c(-c3cc(O)c(O)c(O)c3)[o+]c2c1 [Delphinidin] |  |  | LD50 ([4]; rat, in vivo): 1250 mg/kg
CCCCC[C@H](O)CC(=O)CCc1ccc(O)c(OC)c1 [Gingerol, 6-gingerol] |  | preferentially stained epithelial cells/adenocytes | LD50 ([2]; mouse, in vivo, po): 250 mg/kg
CC1=C(/C=C/C(C)=C/C=C/C(C)=C/C=C/C=C(C)/C=C/C=C(C)/C=C/C2=C(C)CCCC2(C)C)C(C)(C)CCC1 [β-Carotene] |  | preferentially stained epithelial cells/adenocytes | LD50 ([4]; Rat, Oral): 5000 mg/kg
COc1cccc2c1C(=O)c1c(O)c3c(c(O)c1C2=O)C[C@@](O)(C(=O)CO)C[C@@H]3O[C@H]1C[C@H](N)[C@H](O)[C@H](C)O1 [doxorubicin hydrochloride, reference compound] |  |  | Staining of GFP-Ras^V12 positive cancerized cells versus MDCK normal cells ([1]; Prestwick Chemical Library compounds, 1 μM, 5 minutes, hydrochloride): intensely labeling MDCK normal cells compared to cancerized cell small aggregates; also recorded: GFP-Ras^V12 cells were not specifically stained, but normal cells were stained
O=C1/C(=C2\Nc3ccc(S(=O)(=O)[O-])cc3C2=O)Nc2ccc(S(=O)(=O)[O-])cc21.[Na+].[Na+] [Blue #2, indigo carmine] | 2000 mg/kg | preferentially stained connective tissue/capillaries | 
O=C1OC2(c3ccccc31)c1cc(I)c(O)c(I)c1Oc1c2cc(I)c(O)c1I [Red #3, erythrosine] |  | preferentially stained epithelial cells/adenocytes | Staining of GFP-Ras^V12 positive cancerized cells versus MDCK normal cells [1, 7]: GFP-Ras^V12 positive cells were preferentially stained; Staining of GFP-Ras^V12 positive cancerized cells versus MDCK normal cells ([1]; Ministry of Health, Labour and Welfare-approved food additives, 1 mg/ml, listed as erythrosine): labeled GFP-Ras^V12-positive cancerized cell small aggregates more intensely than normal cells; Staining of cancer lesion sites compared with normal mucosa [5]: stained cancer lesion sites much more intensely than normal mucosa; LD50 ([2]; mouse, in vivo, po): 6800 mg/kg
meclocycline sulfosalicylate [reference compound] |  |  | Staining of GFP-Ras^V12 positive cancerized cells versus MDCK normal cells [1, 6]: intensely labeled in GFP-Ras^V12 positive cancerized cell small aggregates compared to normal cells; also recorded: GFP-Ras^V12 positive cells were preferentially stained
O=S(=O)([O-])c1ccc2c(N=Nc3ccc(S(=O)(=O)[O-])c4ccccc34)c(O)c(S(=O)(=O)[O-])cc2c1.[Na+].[Na+].[Na+] [Red #2] |  |  | LD50 ([2]; Mouse, Intra-abdominal): 1000 mg/kg
COc1cc(-c2[o+]c3cc(O)cc(O)c3cc2O)cc(O)c1O [Petunidine] |  | preferentially stained epithelial cells/adenocytes | LD50 ([2]; Mouse, Intra-abdominal): 4110 mg/mL
Oc1cc(O)c2ccc(-c3cc(O)c(O)c(O)c3)[o+]c2c1 [Tricetinidin] | 300 mg/kg | preferentially stained epithelial cells/adenocytes | 
